Measured values published in US20070042026A1, “Prophylactic and therapeutic treatment of topical and transdermal drug-induced skin reactions” (priority 2005, published 2007).

Assays:
[1] = tested on: mouse skin; conditions: cited from earlier work; for contact sensitization in a mouse skin model (mast cell degranulating agents): in vivo
[2] = DPPH* free-radical scavenging anti-oxidant assay; conditions: absorbance at 595 nm, after 30 minutes of incubation at 25° C.; read-out: molar activity (EC50, concentration that lowers the zero time optical absorbance of DPPH by 50 percent)
Protocol: Solutions of test compounds were assayed for their antioxidant activity by the free-radical scavenging method that uses diphenylpicryl hydrazine (DPPH*) reagent as described previously (Bonina et al, 2003). In order to standardize the activity, we defined for each compound, an EC50 value as the concentration that lowers the zero time optical absorbance of DPPH at 595 nm by 50 percent measured after 30 minutes of incubation at 25° C.

[3] = tested on: HaCat keratinocytes; assay: Retinoid-stimulated autocrine clonal growth of HaCat keratinocytes (biochemical assay for anti-irritant activity); assay type: cell-based, human; conditions: 10 μM, 48 hours after treatment, retinoid-stimulated autocrine growth conditions
Protocol: Since retinoids irritate skin leading to epidermal hyperplasia, we have employed an in vitro cell culture method to detect antioxidants that act to inhibit retinoid-stimulated autocrine growth of human keratinocytes.
Method: An immortalized line of human epidermal kertatinocytes, HaCat keratinocytes, can be cultured in a serum-free culture medium. Sterile Petri dishes (35 mm^2) are seeded at 5,000 cells per cm^2 and placed in a humidifed CO2 incubator at 37° C. for 3-5 days or until the culture reaches about 30% confluent monolayer growth. The dishes are washed once with ice-cold serum-free media lacking EGF and insulin, and refed 2.5 ml of serum-free culture medium containing 5 ug/ml insulin and retinyl acetate (RA, 3×10^−8 M). Duplicate control dishes are fixed and stained with 0.2% crystal violet to record the amount of clonal growth prior to refeeding with fresh RA-containing medium. Test dishes refed RA and insulin are split into three groups in duplicate. Group A is refed on the RA plus insulin medium. Group B is refed RA plus insulin medium and a […] inhibitor (PD 153035), and Group C is refed medium containing RA plus insulin and from 0.1 to 5% of a hydroalcoholic botanical extract. All dishes are adjusted to have the same final concentration of alcohol (1%). All dishes are placed back in the incubator for 2 and 4 days. They are fixed and stained with 0.2% crystal violet. […]

[4] = Rosmarinic acid 5%; cited from earlier work
[5] = tested on: mouse skin; conditions: cited from earlier work
[6] = tested on: volar arm skin of volunteers; assay: 24-hour occlusive patch (Finn chamber) anti-irritant test with 0.5% benzalkonium chloride carrier gels; assay type: in vivo, human
Protocol: Occlusive patch testing was conducted on extracts prepared by starch gel encapsulation in a oil-in water emulsion system previously described (Wille, 2003).
Anti-irritant assays: All carrier system gels were prepared with 0.5% benzalkonium chloride, a mild irritant. To test for anti-irritancy, the irritant-containing carrier gels were also loaded with the test botanical extracts (experimentals). The control and test gels were deposited (100 microliters) on 10 mm square circular filter paper discs and placed in side of Finn chambers (20 mm square), which were then applied to the volar arm skin of volunteers. The chambers were affixed to skin with non-allergic adhesive tape and left in place for 24 hours. Upon termination of the treatments, the chambers were removed and the skin gently wiped clean with moistened cotton swabs. The exposed skin was first examined for signs of erythema (redness) and induration (swelling), and skin sites photographed. The exposed skin sites were probed for skin capacitance (skin moisture levels) using a Corneometer instrument (Courage & Khazaka, Koln, Germany).

Compound: O=C(O)/C=C\c1c[nH]cn1 [cis-urocanic acid]
- contact sensitization in a mouse skin model (mast cell degranulating agents) [1]: prevent contact sensitization

Compound: COc1cc(CNC(=O)CCCC/C=C/C(C)C)ccc1O [capsaicin]
- contact sensitization in a mouse skin model (mast cell degranulating agents) [1]: prevent contact sensitization

Compound: O.O.O=c1c(O)c(-c2ccc(O)c(O)c2)oc2cc(O)cc(O)c12 [quercetin dihydrate]
- EC50 [2]: 86 µM
- clonal growth relative to the untreated control [3]: completely inhibited

Compound: O=C(/C=C/c1ccc(O)c(O)c1)O[C@H](Cc1ccc(O)c(O)c1)C(=O)O [Rosmarinic acid]
- reduction of the irritating action of alpha-hydroxy acids (lactic and glycolic acids) [4]: over three-fold

Compound: COc1ccc(CCN(C)CCCC(C#N)(c2ccc(OC)c(OC)c2)C(C)C)cc1OC (stereo not shown) [Verapamil]
- minimizing contact sensitization due to Nadolol ([1]; topical application of Nadolol to mouse skin): effective

Compound: O=C(O)COc1ccccc1 [Phenoxyacetic acid]
- contact sensitization due to para-phenylenediamine ([1]; application of the hair dye to mouse skin): prevent contact sensitization
- skin irritation due to a panel of known skin irritants including sodium lauryl sulfate ([5]; mouse, in vivo): block skin irritation

Compound: O=C1O[C@H]([C@@H](O)CO)C(O)=C1O [ascorbic acid]
- EC50 [2]: 26 µM

Compound: Cc1c(C)c2c(c(C)c1O)CC[C@@](C)(CCC[C@H](C)CCC[C@H](C)CCCC(C)C)O2 [vitamin E, alpha-tocopherol]
- EC50 [2]: 46 µM

Compound: C=C(CC)C(=O)c1ccc(OCC(=O)O)c(Cl)c1Cl [Ethacrynic acid]
- prevention of contact sensitization due to Clonidine, Chlorpheniramine, Albuterol and Nadolol ([1]; delivery of the sensitizing drugs to mouse skin): effective
- prevention of skin irritation due to 2,4-dinitro-chlorobenzene, arachidonic acid, phorbol myristic acid, trans-retinoic acid and lactic acid ([5]; topical application to mouse): effective

Compound: O=C(O)c1cc(O)c(O)c(O)c1 [gallic acid, 3,4,5-trihydroxybenzoic acid]
- effect on benzalkonium chloride induced skin irritation ([6]; 24 hour occlusion): anti-irritant effect
- irritancy to skin ([6]; gallic acid alone, 24 hours of occlusion): not irritating to skin
- skin hydration profile ([6]; gallic acid alone, after 24 hours of occlusion): does not alter skin hydration profile

Compound: CCCCCCCCCCCCCCCC(=O)OC[C@H](O)[C@H]1OC(=O)C(O)=C1O [ascorbyl palmitate]
- EC50 [2]: 30 µM
